# Like-named read-outs stand apart in the source and are kept apart here.
# Legend:
# [1] = cited from earlier work
# [2] = system: primary human hepatocytes, NIH3T3 fibroblasts, BSEP, CYP3A4; settings: cited from earlier work
# [3] = cited from earlier work; remark: listed apart in the source
# [4] = cited from earlier work; remark: listed apart in the source
# [5] = system: isolated mouse liver mitochondria; settings: In vitro Assay; ref Porceddu 2012; cited from earlier work
# HepG2 cells [6] = settings: cited from earlier work
# [7] = plasma free fraction; cited from earlier work
# [8] = system: HepG2 C3A spheroid, BSEP, Glu/Gal in HepG2 cells, bioactivation; settings: cited from earlier work
# rBsep = settings: In vitro Assay; ref Dawson 2012; cited from earlier work
# hLiMTs [9] = experiment: Combined HCI (HCS) and cellular ATP 3D assay in hLiMTs; settings: for AC50 / minimal effective concentration: Homo sapiens
# PHH = settings: cited from earlier work
# [10] = ref Chen 2011; cited from earlier work
# HepG2 cells [11] = settings: In vitro Assay; ref O'Brien 2006; cited from earlier work
# [12] = system: THLE or HepG2 cells, isolated mitochondria, BSEP; settings: cited from earlier work
# [13] = Plasma free fraction (fu) and unbound Cmax (Cmax,u); assay type: in vitro ADME, human; settings: unbound plasma Cmax
# Experimental: The prediction of DILI severity was evaluated further using the 3D combined HCI assays using plasma-free fraction. The majority of fu values were obtained from literature, when unavailable in-house prediction was utilised. Unbound plasma Cmax concentrations (Cmax,u) were derived by multiplying total plasma Cmax with the corresponding free fraction (fu) for each compound.
# Upcyte human hepatocytes = settings: In vitro Assay; ref Tolosa 2019; cited from earlier work
# [14] = system: THLE-Null and THLE-3A4 cells; settings: In vitro Assay; ref Gustafsson 2014; cited from earlier work
# HepaRG spheroids = experiment: Combined HCI (HCS) and cellular ATP 3D assay in HepaRG spheroids; settings: for AC50 / minimal effective concentration: Homo sapiens
# hLiMTs [15] = settings: cited from earlier work
# human hepatocytes = settings: In vitro Assay; ref Xu 2008; cited from earlier work
# PHH spheroids = settings: cited from earlier work
# HepG2 cells [16] = settings: cited from earlier work; remark: listed apart in the source
# [17] = system: HepG2 cells, primary human hepatocytes; settings: In vitro Assay; ref Garside 2014; cited from earlier work
# [18] = In vitro Assay, ref Schadt 2015
# [19] = In vitro Assay, ref Persson 2013
# [20] = Microtissue model structural based (HCI), combined HCS and ATP, MEC < 25 × Cmax.tot cut-off
# [21] = In vitro Assay, ref Proctor 2017
# [22] = Modeled in vitro assays (cytotoxicity, mitochondrial dysfunction, BSEP), ref Aleo et al. 2019
smiles,measurement,setting,value
"CC(C)C(=O)Nc1ccc([N+](=O)[O-])c(C(F)(F)F)c1 [flutamide, reference compound]",Cmax,"[1]; read-out: Cmax.tot, value used for normalisation, ref O'Brien et al. 2006",6 µM
same,Cmax,"[1]; read-out: Cmax.tot, value used for normalisation, ref Xu et al. 2008",0.36 µM
same,Cmax,"[1]; read-out: Human plasma Cmax, total plasma Cmax.tot, median of 9 literature references",5.43 µM
same,"DILI in vitro assay prediction, Schadt (2015)","[2]; BSEP & Metabolism based, ref Schadt et al. 2015",+VE
same,Cellular toxicity (3T3 cells),[2]; [18],-VE
same,Combined Assay,[2]; [18],+VE
same,GSH adduct HML,[2]; [18],+VE
same,Hepatocyte cellular toxicity,[2]; [18],-VE
same,MitoTox 3T3,[2]; [18],+VE
same,TDI CYP3A4,[2]; [18],-VE
same,hBSEP inhibition,[2]; [18],-VE
same,DILI severity category (Chen et al. [2016]),"[3]; LTKB DILIrank category, ref Chen et al. 2016",Most
same,DILI severity category (Chen 2016),"[3]; human DILI classification, LTKB DILIrank, ref Chen et al. 2016",Most
same,DILI severity category,"[3]; human DILI severity, ref Chen et al.",Most
same,"DILI +VE (5-8), DILI -VE (-4)",[3]; ref Chen 2016,+VE
same,DILI severity category,[3]; ref Chen 2016,vMost-DILI-Concern
same,Assigned DILI category,"[4]; Chen et al. 2016 or literature alignment, ref Chen et al. 2016",3
same,In vivo DILI,[4]; […],+VE
same,In vivo DILI,[4]; ref Aleo 2019,+VE
same,In vivo DILI,[4]; ref Dawson 2012,+VE
same,In vivo DILI,[4]; ref Garside 2014,+VE
same,In vivo DILI,[4]; ref Gustafsson 2014,+VE
same,In vivo DILI,[4]; ref O'Brien 2006,+VE
same,In vivo DILI,[4]; ref Persson 2013,+VE
same,In vivo DILI,[4]; ref Porceddu 2012,-VE
same,In vivo DILI,[4]; ref Proctor 2017,+VE
same,In vivo DILI,[4]; ref Schadt 2015,+VE
same,In vivo DILI,[4]; ref Tolosa 2012,+VE
same,In vivo DILI,[4]; ref Tolosa 2019,+VE
same,In vivo DILI,[4]; ref Vorrink 2018,+VE
same,In vivo DILI,[4]; ref Williams 2019,+VE
same,In vivo DILI,[4]; ref Xu 2008,+VE
same,in vitro data EC2<=1x Cmax,[5],+VE
same,in vitro data EC20<=2uM,[5],-VE
same,Cluser analysis,HepG2 cells [6]; [19],-VE
same,Structural based (HCI),HepG2 cells [6]; [19],-VE
same,"DILI in vitro assay prediction, Persson (2013)","HepG2 cells [6]; Structural based (HCI), HepG2, ref Persson et al. 2013",-VE
same,fu,[7],0.050
same,"Bayesian Machine Learning DILI prediction, Williams (2019)","[8]; Bayesian modeling, ref Williams et al. 2019",+VE
same,Bayesian Machine Learning,"[8]; In vitro Assay, ref Williams 2019",+VE
same,Inhibition of rBsep cutoff<1& cmax u>.2,rBsep,+VE
same,Inhibition of rBsep cutoff<3,rBsep,+VE
same,AC50,hLiMTs [9]; read-out: ATP endpoint AC50,29.9 µM
same,minimal effective concentration,hLiMTs [9]; read-out: ATP endpoint MEC,18.5 µM
same,AC50,hLiMTs [9]; read-out: HCS endpoint AC50,43.5 µM
same,minimal effective concentration,hLiMTs [9]; read-out: HCS endpoint MEC,3.63 µM
same,DILI prediction hLiMTs (HCS-MEC),hLiMTs [9]; [20],+VE (MEC < 25 × Cmax.tot cut-off)
same,hLiMTs <25x Avg Cmax ATP,"hLiMTs [9]; hLiMTs, ATP endpoint, cut-off <25x Avg Cmax",+ve
same,hLiMTs <100x Avg Cmaxu ATP,"hLiMTs [9]; hLiMTs, ATP endpoint, cut-off <100x Avg Cmaxu",+ve (<100x Avg Cmaxu)
same,hLiMTs <25x Avg Cmax HCS,"hLiMTs [9]; hLiMTs, HCS endpoints, cut-off <25x Avg Cmax",+ve
same,hLiMTs <100x Avg Cmaxu HCS,"hLiMTs [9]; hLiMTs, HCS endpoints, cut-off <100x Avg Cmaxu",+ve (<100x Avg Cmaxu)
same,hLiMTs <25x Avg Cmax All,"hLiMTs [9]; hLiMTs, all endpoints (ATP and HCS), cut-off <25x Avg Cmax",+ve
same,hLiMTs Cmax max All,"hLiMTs [9]; hLiMTs, all endpoints, Cmax max used",+ve
same,hLiMTs Cmax min All,"hLiMTs [9]; hLiMTs, all endpoints, Cmax min used",+ve
same,hLiMTs <10 uM All,"hLiMTs [9]; hLiMTs, all endpoints, cut-off <10 uM",+ve (<10 uM)
same,hLiMTs <100x Avg Cmaxu All,"hLiMTs [9]; hLiMTs, all endpoints, cut-off <100x Avg Cmaxu",+ve (<100x Avg Cmaxu)
same,"PHH/100xCmax, Proctor (2017)","PHH; 2D PHH, ATP, IC50 < 100 × Cmax.tot, ref Proctor et al. 2017",+VE (IC50 < 100 × Cmax.tot)
same,"PHH/100uM, Proctor (2017)","PHH; 2D PHH, ATP, IC50 threshold 100 µM, ref Proctor et al. 2017",+VE (IC50 threshold of 100 µM)
same,PHH ATP <100uM,PHH; [21],+VE (IC50 threshold of 100 µM)
same,DILI Score (FDA) (1-8),[10],8
same,Structural based (HCI),HepG2 cells [11],+VE
same,Partition Hybrid HRM Score,"[12]; In vitro Assay, ref Aleo 2019",+VE
same,Ro2 Hybrid HRM Score,"[12]; In vitro Assay, ref Aleo 2019",+VE
same,"Partition Hybrid HRM Score ≥4, Aleo (2019)",[12]; [22],+VE (Partition Hybrid HRM Score ≥4)
same,"Partition Hybrid HRM Score ≥8, Aleo (2019)",[12]; [22],+VE (Partition Hybrid HRM Score ≥8)
same,"Rule of Two hybrid HRM Score ≥3, Aleo (2019)",[12]; [22],+VE (Rule of Two hybrid HRM Score ≥3)
same,"Rule of Two hybrid HRM Score ≥8, Aleo (2019)",[12]; [22],+VE (Rule of Two hybrid HRM Score ≥8)
same,"Human plasma Cmax,u",[13],0.272 µM
same,Upcytes multi donor assay 14day data,Upcyte human hepatocytes,+VE
same,THLE-Null,[14],-VE
same,THLE-Null/3A4,[14],-VE
same,HepaRG <25x Avg Cmax ATP,"HepaRG spheroids; HepaRG, ATP endpoint, cut-off <25x Avg Cmax",+ve
same,HepaRG <100x Avg Cmaxu ATP,"HepaRG spheroids; HepaRG, ATP endpoint, cut-off <100x Avg Cmaxu",+ve (<100x Avg Cmaxu)
same,HepaRG <25x Avg Cmax HCS,"HepaRG spheroids; HepaRG, HCS endpoints, cut-off <25x Avg Cmax",+ve
same,HepaRG <100x Avg Cmaxu HCS,"HepaRG spheroids; HepaRG, HCS endpoints, cut-off <100x Avg Cmaxu",+ve (<100x Avg Cmaxu)
same,HepaRG <25x Avg Cmax All,"HepaRG spheroids; HepaRG, all endpoints (ATP and HCS), cut-off <25x Avg Cmax",+ve
same,HepaRG Cmax max All,"HepaRG spheroids; HepaRG, all endpoints, Cmax max used",+ve
same,HepaRG Cmax min All,"HepaRG spheroids; HepaRG, all endpoints, Cmax min used",+ve
same,HepaRG <10 uM All,"HepaRG spheroids; HepaRG, all endpoints, cut-off <10 uM",+ve (<10 uM)
same,HepaRG <100x Avg Cmaxu All,"HepaRG spheroids; HepaRG, all endpoints, cut-off <100x Avg Cmaxu",+ve (<100x Avg Cmaxu)
same,AC50,"HepaRG spheroids; HepaRG, read-out: ATP endpoint AC50",14.9 µM
same,minimal effective concentration,"HepaRG spheroids; HepaRG, read-out: ATP endpoint MEC",7.75 µM
same,AC50,"HepaRG spheroids; HepaRG, read-out: HCS endpoint AC50",42.7 µM
same,minimal effective concentration,"HepaRG spheroids; HepaRG, read-out: HCS endpoint MEC",13.9 µM
same,DILI prediction HepaRG spheroids (HCS-MEC),HepaRG spheroids; [20],+VE (MEC < 25 × Cmax.tot cut-off)
same,hLiMTs ATP <100uM,hLiMTs [15]; [21],+VE (IC50 threshold of 100 µM)
same,"hLiMTs/100xCmax, Proctor (2017)","hLiMTs [15]; hLiMTs, ATP, IC50 < 100 × Cmax.tot, ref Proctor et al. 2017",+VE (IC50 < 100 × Cmax.tot)
same,"hLiMTs/100uM, Proctor (2017)","hLiMTs [15]; hLiMTs, ATP, IC50 threshold 100 µM, ref Proctor et al. 2017",+VE (IC50 threshold of 100 µM)
same,Structural based (HCI),human hepatocytes,-VE
same,hLiMTs ATP <20 x Cmax,"PHH spheroids; In vitro Assay, ref Vorrink 2018",+VE (IC20 < 20 × Cmax.tot cut-off)
same,"DILI in vitro assay prediction, Vorrink (2018)","PHH spheroids; PHH spheroids, ATP, 14 days, IC20 < 20 × Cmax.tot, ref Vorrink et al. 2018",+VE (IC20 < 20 × Cmax.tot cut-off)
same,Structural based (HCI),"HepG2 cells [16]; In vitro Assay, ref Tolosa 2012",+VE
same,"DILI in vitro assay prediction, Tolosa (2012)","HepG2 cells [16]; Structural based (HCI), HepG2, ref Tolosa et al. 2012",+VE
same,Cluster 1-6 +VE Assay,[17],+VE

# Reference: paper PMC7395068, “The evolution of strategies to minimise the risk of human drug-induced liver injury (DILI) in drug discovery and development” (Archives of Toxicology, 2020)
